Experimental data taken from US20200261391A1, “METHODS OF REDUCING THE RISK OF A CARDIOVASCULAR EVENT IN A STATIN-TREATED SUBJECT BY INCREASING SERUM AND PLASMA EPA AND DPA LEVELS” (Amarin Pharmaceuticals Ireland Limited, priority 2019, published 2020).

Tested on: patients with elevated triglyceride levels on statin therapy
Test: REDUCE-IT trial: safety (treatment-emergent adverse events, bleeding, atrial fibrillation/flutter)
[1] = TEAE by preferred term, Safety population, N = 4089
[2] = gastrointestinal TEAEs, Safety population, N = 4089
[3] = serious bleeding TEAE by preferred term, N = 4089
[4] = serious bleeding TEAE, Safety population, N = 4089

Protocol: Specification of Variables and Procedures: Safety assessments included adverse events, clinical laboratory measurements (chemistry, hematology), 12-lead ECGs, vital signs (systolic and diastolic blood pressure, heart rate, respiratory rate, and body temperature), weight, waist circumference, and physical examinations as per Study Procedures in Table 1. […] All laboratory test results were evaluated by the investigator as to their clinical significance. Any observations at physical examinations or laboratory values considered by the investigator to be clinically significant were considered an adverse event.
An adverse event can therefore be any unfavorable and/or unintended sign (including an abnormal laboratory finding), symptom, or disease temporally associated with the use of an investigational medication product, whether or not related to the investigational medication product. All adverse events, including observed or volunteered problems, complaints, or symptoms, were recorded on the appropriate CRF. Each adverse event was evaluated for duration, intensity, and causal relationship with the study medication or other factors.
Serious Adverse Events: A serious adverse event (SAE) is defined as an adverse event that meets any of the following criteria: • Results in death; • Is life-threatening—The term “life-threatening” in the definition of “serious” refers to an event in which the patient was at risk of death at the time of the event. […] Important medical events that may not result in death, be life threatening, or require hospitalization were considered an SAE when, based upon appropriate medical judgment, they may have jeopardized the patient and may have required medical or surgical intervention to prevent one of the outcomes listed above.
Adverse Events of Special Interest: Bleeding-related adverse events, glucose control (fasting blood glucose and HbA1c), and indicators of hepatic disorders (e.g., ALT or AST increases >3×ULN, total bilirubin increases of ≥2×ULN) were summarized separately and compared between treatment groups.
Analysis of Safety: All analyses of safety were conducted on the safety population, which was defined as all randomized patients. The safety assessment was based on the frequency of adverse events, physical exams, vital signs and safety laboratory tests. AEs with new onset during the study between the initiation of study drug and 30 days after the last dose of study drug for each patient was considered treatment-emergent (TEAEs). This included any AE with onset prior to initiation of study drug and increased severity after the treatment initiation.
This included overall incidence rates (regardless of severity and relationship to study drug), and incidence rates for moderate or severe adverse events. A summary of SAEs and adverse events leading to early discontinuation (for ≥30 days) were presented through data listings. Patients who restarted study drug were included in the summary of AEs leading to discontinuation. Safety laboratory tests and vital signs were summarized by post-treatment change from baseline for each of the parameters using descriptive statistics by treatment group. Those patients with significant laboratory abnormalities were identified in data listings. Additional safety parameters were summarized in data listings.

## CC/C=C\C/C=C\C/C=C\C/C=C\C/C=C\CCCC(=O)OCC [icosapent ethyl, eicosapentaenoic acid ethyl ester]
N = 4089
  Pneumonia, number of patients with serious treatment-emergent adverse event: 105
  Pneumonia, patients with serious treatment-emergent adverse event: 2.6%
Safety population, N = 4089
  Serious TEAE Leading to Death, % of patients: (2.3%)
  Serious TEAE Leading to Death, number of patients: 94
  Serious TEAE Leading to Withdrawal of Study Drug, % of patients: (2.2%)
  Serious TEAE Leading to Withdrawal of Study Drug, number of patients: 88
  Serious TEAE, % of patients: (30.6%)
  Serious TEAE, number of patients: 1252
  Subjects with at Least One TEAE, % of patients: (81.8%)
  Subjects with at Least One TEAE, number of patients: 3343
  TEAE Leading to Withdrawal of Study Drug, % of patients: (7.9%)
  TEAE Leading to Withdrawal of Study Drug, number of patients: 321
[1]
  Anemia, % of patients: 4.7%
  Anemia, number of patients: 191
  Angina pectoris, % of patients: 4.9%
  Angina pectoris, number of patients: 200
  Arthralgia, % of patients: 7.7%
  Arthralgia, number of patients: 313
  Atrial fibrillation, % of patients: 5.3%
  Atrial fibrillation, number of patients: 215
  Back pain, % of patients: 8.2%
  Back pain, number of patients: 335
  Bronchitis, % of patients: 7.5%
  Bronchitis, number of patients: 306
  Cataract, % of patients: 5.7%
  Cataract, number of patients: 233
  Chest pain, % of patients: 6.7%
  Chest pain, number of patients: 273
  Constipation, % of patients: 5.4%
  Constipation, number of patients: 221
  Cough, % of patients: 5.9%
  Cough, number of patients: 241
  Diarrhea, % of patients: 9.0%
  Diarrhea, number of patients: 367
  Dizziness, % of patients: 5.7%
  Dizziness, number of patients: 235
  Dyspnea, % of patients: 6.2%
  Dyspnea, number of patients: 254
  Fatigue, % of patients: 5.6%
  Fatigue, number of patients: 228
  Hypertension, % of patients: 7.8%
  Hypertension, number of patients: 320
  Influenza, % of patients: 6.4%
  Influenza, number of patients: 263
  Nasopharyngitis, % of patients: 7.7%
  Nasopharyngitis, number of patients: 314
  Osteoarthritis, % of patients: 5.9%
  Osteoarthritis, number of patients: 241
  Pain in extremity, % of patients: 5.7%
  Pain in extremity, number of patients: 235
  Peripheral edema, % of patients: 6.5%
  Peripheral edema, number of patients: 267
  Pneumonia, % of patients: 6.4%
  Pneumonia, number of patients: 263
  Upper respiratory tract infection, % of patients: 7.6%
  Upper respiratory tract infection, number of patients: 312
  Urinary tract infection, % of patients: 6.2%
  Urinary tract infection, number of patients: 253
[2]
  Gastroesophageal Reflux Disease, % of patients: 3.0%
  Gastroesophageal Reflux Disease, number of patients: 124
  Gastrointestinal disorders (primary system organ class), % of patients: 33.0%
  Gastrointestinal disorders (primary system organ class), number of patients: 1350
  Nausea, % of patients: 4.6%
  Nausea, number of patients: 190
In vivo
  anemia, adverse event rate: 4.7%
  atrial fibrillation or flutter requiring hospitalization (adjudicated tertiary endpoint), rate: 3.1%
  atrial fibrillation, adverse event rate: 5.3%
  diarrhea, adverse event rate: 9%
  gastrointestinal adverse events, rate: 33.0%
  gastrointestinal bleeding (serious), rate: 1.5%
  new or unexpected important adverse effects in the safety population: no new or unexpected important adverse effects
  overall adverse event rates compared with placebo: similar
  peripheral edema, adverse event rate: 6.5%
  serious central nervous system bleeding, rate: 0.3%
  tolerability: well tolerated
  treatment-emergent serious adverse events for bleeding, rate: 2.7%
In vivo, listed as AMR101
  rates of adverse events or serious adverse events leading to withdrawal of study drug vs placebo: no significant differences
[3]
  Aortic Aneurysm Rupture, % of patients: (0.0%)
  Aortic Aneurysm Rupture, number of patients: 1
  Brain Contusion, % of patients: (0.0%)
  Brain Contusion, number of patients: 0
  Catheter Site Hemorrhage, % of patients: (0.0%)
  Catheter Site Hemorrhage, number of patients: 0
  Cerebral Hemorrhage, % of patients: (0.0%)
  Cerebral Hemorrhage, number of patients: 0
  Cystitis Hemorrhagic, % of patients: (0.0%)
  Cystitis Hemorrhagic, number of patients: 2
  Diverticulitis Intestinal Hemorrhagic, % of patients: (0.0%)
  Diverticulitis Intestinal Hemorrhagic, number of patients: 0
  Diverticulum Intestinal Hemorrhagic, % of patients: (0.1%)
  Diverticulum Intestinal Hemorrhagic, number of patients: 3
  Duodenal Ulcer Hemorrhage, % of patients: (0.0%)
  Duodenal Ulcer Hemorrhage, number of patients: 2
  Ecchymosis, % of patients: (0.0%)
  Ecchymosis, number of patients: 1
  Epistaxis, % of patients: (0.2%)
  Epistaxis, number of patients: 7
  Esophageal Hemorrhage, % of patients: (0.0%)
  Esophageal Hemorrhage, number of patients: 0
  Extravasation Blood, % of patients: (0.0%)
  Extravasation Blood, number of patients: 1
  Gastric Hemorrhage, % of patients: (0.0%)
  Gastric Hemorrhage, number of patients: 1
  Gastric Ulcer Hemorrhage, % of patients: (0.1%)
  Gastric Ulcer Hemorrhage, number of patients: 3
  Gastrointestinal Angiodysplasia Hemorrhagic, % of patients: (0.0%)
  Gastrointestinal Angiodysplasia Hemorrhagic, number of patients: 1
  Gastrointestinal Hemorrhage, % of patients: (0.6%)
  Gastrointestinal Hemorrhage, number of patients: 26
  Genital Hemorrhage, % of patients: (0.0%)
  Genital Hemorrhage, number of patients: 1
  Hemarthrosis, % of patients: (0.0%)
  Hemarthrosis, number of patients: 0
  Hematemesis, % of patients: (0.1%)
  Hematemesis, number of patients: 3
  Hematochezia, % of patients: (0.0%)
  Hematochezia, number of patients: 1
  Hematoma, % of patients: (0.0%)
  Hematoma, number of patients: 1
  Hematuria, % of patients: (0.2%)
  Hematuria, number of patients: 8
  Hemoptysis, % of patients: (0.0%)
  Hemoptysis, number of patients: 1
  Hemorrhagic Anemia, % of patients: (0.1%)
  Hemorrhagic Anemia, number of patients: 4
  Hemorrhagic Duodenitis, % of patients: (0.0%)
  Hemorrhagic Duodenitis, number of patients: 0
  Hemorrhagic Transformation Stroke, % of patients: (0.0%)
  Hemorrhagic Transformation Stroke, number of patients: 1
  Hemorrhoidal Hemorrhage, % of patients: (0.1%)
  Hemorrhoidal Hemorrhage, number of patients: 3
  Hemothorax, % of patients: (0.0%)
  Hemothorax, number of patients: 1
  Immune Thrombocytopenic Purpura, % of patients: (0.0%)
  Immune Thrombocytopenic Purpura, number of patients: 0
  Intra-Abdominal Hemorrhage, % of patients: (0.0%)
  Intra-Abdominal Hemorrhage, number of patients: 1
  Intracranial Hemorrhage, % of patients: (0.0%)
  Intracranial Hemorrhage, number of patients: 0
  Large Intestinal Hemorrhage, % of patients: (0.0%)
  Large Intestinal Hemorrhage, number of patients: 1
  Lower Gastrointestinal Hemorrhage, % of patients: (0.1%)
  Lower Gastrointestinal Hemorrhage, number of patients: 5
  Mallory-Weiss Syndrome, % of patients: (0.0%)
  Mallory-Weiss Syndrome, number of patients: 1
  Melaena, % of patients: (0.1%)
  Melaena, number of patients: 3
  Menorrhagia, % of patients: (0.0%)
  Menorrhagia, number of patients: 1
  Mouth Hemorrhage, % of patients: (0.0%)
  Mouth Hemorrhage, number of patients: 0
  Pancreatitis Hemorrhagic, % of patients: (0.0%)
  Pancreatitis Hemorrhagic, number of patients: 1
  Peptic Ulcer Hemorrhage, % of patients: (0.0%)
  Peptic Ulcer Hemorrhage, number of patients: 1
  Pericardial Hemorrhage, % of patients: (0.0%)
  Pericardial Hemorrhage, number of patients: 0
  Post Procedural Hematoma, % of patients: (0.0%)
  Post Procedural Hematoma, number of patients: 1
  Post Procedural Hematuria, % of patients: (0.0%)
  Post Procedural Hematuria, number of patients: 0
  Post Procedural Hemorrhage, % of patients: (0.1%)
  Post Procedural Hemorrhage, number of patients: 5
  Rectal Hemorrhage, % of patients: (0.2%)
  Rectal Hemorrhage, number of patients: 10
  Renal Hemorrhage, % of patients: (0.0%)
  Renal Hemorrhage, number of patients: 0
  Retinal Hemorrhage, % of patients: (0.0%)
  Retinal Hemorrhage, number of patients: 1
  Retroperitoneal Hematoma, % of patients: (0.0%)
  Retroperitoneal Hematoma, number of patients: 0
  Retroperitoneal Hemorrhage, % of patients: (0.0%)
  Retroperitoneal Hemorrhage, number of patients: 1
  Shock Hemorrhagic, % of patients: (0.0%)
  Shock Hemorrhagic, number of patients: 2
  Subarachnoid Hemorrhage, % of patients: (0.0%)
  Subarachnoid Hemorrhage, number of patients: 2
  Subdural Hematoma, % of patients: (0.2%)
  Subdural Hematoma, number of patients: 9
  Subdural Hemorrhage, % of patients: (0.0%)
  Subdural Hemorrhage, number of patients: 2
  Traumatic Hematoma, % of patients: (0.0%)
  Traumatic Hematoma, number of patients: 2
  Traumatic Intracranial Hemorrhage, % of patients: (0.0%)
  Traumatic Intracranial Hemorrhage, number of patients: 0
  Ulcer Hemorrhage, % of patients: (0.0%)
  Ulcer Hemorrhage, number of patients: 1
  Upper Gastrointestinal Hemorrhage, % of patients: (0.1%)
  Upper Gastrointestinal Hemorrhage, number of patients: 3
  Urinary Bladder Hemorrhage, % of patients: (0.0%)
  Urinary Bladder Hemorrhage, number of patients: 1
[4]
  Bleeding related disorders, % of patients: (2.7%)
  Bleeding related disorders, number of patients: 111
  Central nervous system bleeding, % of patients: (0.3%)
  Central nervous system bleeding, number of patients: 14
  Gastrointestinal bleeding, % of patients: (1.5%)
  Gastrointestinal bleeding, number of patients: 62
  Other bleeding, % of patients: (1.0%)
  Other bleeding, number of patients: 41
